Laboratory results from patent US10220024B2, “Method of inhibiting cancer cell, method for detecting cancer cell, and system for detecting cancer cell” (CANON KABUSHIKI KAISHA, priority 2012, dated 2019).
Like-named read-outs stand apart in the source and are kept apart here.

Assays:
[1] = system: Prostatic cancer cells, PC-3; assay: Cancer cell inhibitory (growth suppressive) action against prostatic cancer cells, CellTiter-Glo viable cell count; type: cell-based; conditions: PC-3, 10 μg/mL, 24 hours
Method: Prostatic cancer cells, PC-3, were pre-cultured in RPMI1640 medium containing 10% FBS at 37° C. in a 5% CO2 ambient. Thereafter, 4,000 cells were seeded per well of a 96-well plate and further cultured for 24 hours. Subsequently, Compound (11) was added to the medium so as to obtain a final concentration of 10 μg/mL and cultured at 37° C. for 24 hours in a 5% CO2 ambient. The cultured cells were analyzed for viable cell count according to CellTiter-Glo Luminescent Cell Viability Assay (manufactured by Promega KK.). As a reference, the number of cells cultured in a medium containing a 0.1% dimethylsulfoxide solution (hereinafter, simply referred to as DMSO) in place of a medium containing Compound (11), in the aforementioned operation, was used as 100.
Viable cell count was analyzed in the same manner as in Experimental Example 8 except that the compounds shown in Table 3 were used in place of Compound (11) of Experimental Example 8.
Viable cell count was analyzed in the same manner as in Experimental Example 8 except that comparative compounds 1 to 4 were used in place of Compound (11) of Experimental Example 8.
The growth rate in Examples herein is a numerical value of the number of cells obtained after culture relative to the number of cells (regarded as 100) grown in a medium containing 0.1% DMSO.
Evaluation of cancer cell inhibition against the prostatic cancer cells (PC-3) was made as follows. • A: Cancer cell growth rate is less than 20% (cancer cell inhibitory (growth suppressive) effect is extremely high) • B: Cancer cell growth rate is 20% or more and less than 50% (cancer cell inhibitory (growth suppressive) effect is high) • C: Cancer cell growth rate is 50% or more (cancer cell inhibitory (growth suppressive) effect is low)

[2] = Measurement of fluorescent property of compound (spectrofluorometer); type: physicochemical; conditions: 5 μM DMSO solution
Method: The excitation wavelength and fluorescence wavelength of the compound were measured by a FL4500 spectrofluorometric measuring machine manufactured by Hitachi High-Technologies Corporation.

[3] = system: K562 ALDH (−) fraction (general cancer cells); assay: Cancer stem-cell selective inhibitory action against chronic myelocytic leukemia cells, ALDH (−) fraction, CellTiter-Glo; type: cell-based, Human; conditions: Homo sapiens, 24 hours, relative to 0.1% DMSO, read-out: ALDH(−) (growth rate)
Method: (§1) Human chronic myelocytic leukemia cells, K562, were pre-cultured in RPMI1640 medium containing 10% FBS at 37° C. in a 5% CO2 ambient. Then, a fraction containing 80% or more of cancer stem cells was extracted by use of ALDEFLUOR reagent (manufactured by VERITAS Corporation) and FACSAria flow cytometry (manufactured by Nippon Becton, Dickinson and Company). Subsequently, Compound (5) was added to the medium so as to obtain a final concentration of 10 μg/mL and cultured at 37° C. for 24 hours in a 5% CO2 ambient. The cultured cells were analyzed for viable cell count according to CellTiter-Glo Luminescent Cell Viability Assay (manufactured by Promega KK.). As a reference, the number of cells cultured in a medium containing a 0.1% dimethylsulfoxide solution (hereinafter, simply referred to as DMSO) in place of a medium containing Compound (1), in the aforementioned operation, was used as 0.1. Note that hereinafter, an ALDEFLUOR reagent positive fraction (deemed as cancer stem cells) is represented by ALDH (+), whereas an ALDEFLUOR reagent negative fraction (not deemed as cancer stem cells) is represented by ALDH (−), in some cases.
(§2) The same operation as in Experimental Example 12 was repeated except that Compound (5) in Experimental Example 12 was changed to the compounds shown in Table 4 and final concentrations shown in Table 4 were used and viable cell counts were separately analyzed. Note that the growth rate in Examples herein is a numerical value of the number of cells obtained after culture relative to the number of cells (regarded as 0.1) grown in a medium containing 0.1% DMSO.
(§3) The same operation as in Experimental Example 12 was repeated except that Compound (5) in Experimental Example 12 was changed to Imatinib (manufactured by NOVARTIS), which is a general anticancer drug, and comparative compounds shown in Table 4 and final concentrations shown in Table 4 were used and viable cell counts were separately analyzed.
(§4) The growth suppressive effect of cancer stem cells was evaluated based on the following criteria. Note that the growth rate in Examples herein is a numerical value relative to the number of cells (regarded as 0.1) grown in a medium containing 0.1% DMSO. • A: The value of ALDH (+) is less than 0.5 (growth suppressive effect against cancer stem cells is extremely high) • B: The value of ALDH (+) is 0.5 or more and less than 0.95 (growth suppressive effect against cancer stem cells is high) • C: The value of ALDH (+) is 0.95 or more (no growth suppressive effect against cancer stem cells)
(§5) Furthermore, superiority of cancer stem cells was evaluated by comparing cancer stem cells to cancer cells based on the following criteria. ALDH (+) represents cancer stem cells; whereas ALDH (−) represents general cancer cells. • A: The value of ALDH (+)/ALDH (−) is less than 0.8 (selective inhibitory effect against cancer stem cells is extremely high) • B: The value of ALDH (+)/ALDH (−) is 0.8 or more and less than 0.95 (selective inhibitory effect against cancer stem cells is high) • C: The value of ALDH (+)/ALDH (−) is 0.95 or more (no selective inhibitory effect against cancer stem cells)

[4] = system: K562 ALDH (+) fraction (cancer stem cells); assay: Cancer stem-cell selective inhibitory action against chronic myelocytic leukemia cells, ALDH (+) fraction, CellTiter-Glo; type: cell-based; conditions: Homo sapiens, 24 hours; for activity at 0.05 µg/mL: 0.05 μg/mL; for activity at 0.5 µg/mL: 0.5 μg/mL; for activity at 1 µg/mL: 1 μg/mL
Method: as §1, §2, §3, §4, §5

K562 ALDH (−) cells = assay: Cancer stem-cell selective staining, fluorescent microscopy, ALDH (−) cells; type: cell-based, Human; conditions: cells cultured for 24 hours in Experimental Example 16 (1 μg/mL)
Method: The cells cultured for 24 hours in Experimental Example 16 were subjected to nuclear staining with Hoechest33342 (manufactured by Dojindo Laboratories) and a fluorescent image observed under AXIOVERT200M inverted fluorescent microscope (manufactured by Carl Zeiss) was photographed.

[5] = read-out: Growth suppression evaluated
[6] = relative to 0.1% DMSO, read-out: ALDH(+) (growth rate)

`COc1ccc(N2c3ccc(/C=C/C4=[N+](C)c5ccccc5C4(C)C)cc3C3CCCC32)cc1` (centres unmarked) [Compound 11] showed an activity at 10 µg/mL ([1]; read-out: Evaluation (cancer cell growth rate)) of less than 20%, an activity at 10 µg/mL ([1]; relative to 0.1% DMSO (100), read-out: Cancer cell growth rate (%)) of 6.7% and an Excitation wavelength λex [2] of 614 nm. For the same compound, the Fluorescence wavelength λem [2] was 669 nm, the activity at 0.05 µg/mL ([3]; 0.05 μg/mL) was 77% and the activity at 0.5 µg/mL ([3]; 0.5 μg/mL) was 49%. It also gave an activity at 1 µg/mL ([3]; 1 μg/mL) of 22%, an activity at 0.05 µg/mL [4, 5] of 50 to 95% and an activity at 0.05 µg/mL [4, 6] of 65%. For the same compound, the activity at 0.5 µg/mL [4, 5] was less than 50%, the activity at 0.5 µg/mL [4, 6] was 32% and the activity at 1 µg/mL [4, 5] was less than 50%. For the same compound, the activity at 1 µg/mL [4, 6] was 12% and the “ALDH(−) (ratio of ALDH (−) cells stained)” value (K562 ALDH (−) cells) was 48.5%.
